# According to paper PMC12449371, “The role of unsaturated fatty acids in modulating human butyrylcholinesterase activity: insights from kinetics and molecular docking” (Naunyn-Schmiedeberg's Archives of Pharmacology, 2025):
# “Also recorded” adds a separate entry of the source. Read-outs that look alike come from different tables or passages of the source.
# Tests used:
# human BChE [1] = target: T1, human BChE (Homo sapiens, UniProt P06276); assay: IC50 determination, modified 96-microtiter plate Ellman assay; assay type: biochemical; conditions: purified human serum BChE, 0.5 mM BTCh, 50 mM MOPS pH 7.4, 37 °C, Table 2 head prints no unit, µM
# T1 construct: purification process was performed using 0 Rh (−) human blood serum from the Hacettepe Hospital blood bank; from tissue; host or cells: human blood serum (0 Rh(−), Hacettepe Hospital blood bank)
# Description: (§1) The butyrylcholinesterase purification process was performed using 0 Rh (−) human blood serum from the Hacettepe Hospital blood bank, as described in a previous study (Gok et al. [2023]). BChE was subjected to acid dialysis followed by DEAE-Trisacryl M ion-exchange chromatography under pH 5.5 conditions. The pooled active fractions from Trisacryl M chromatography were dialyzed to adjust neutral buffer pH 7.4 and transferred to procainamide-Sepharose 4B chromatography. The BChE enzyme was bound to the procainamide column, which was then washed with 25 mM phosphate buffer at pH 7.4. The BChE was eluted from the column with a linear gradient of 0.2–0.8 M NaCl in 25 mM potassium phosphate buffer pH 7.4, followed by dialysis. […] Silver staining (Blum et al. [1987]) and the Karnovsky-Roots technique (Karnovsky and Roots [1964]) were used to visualize gels that had been labeled for activity and protein, […].
# The IC₅₀ was determined using the modified 96-microtiter plate Ellman assay (George and Abernethy [1983]), using a total volume of 200 µL. […] The unsaturated fatty acids used for the test were dissolved in DMSO and then the working solutions were sonicated in a reaction buffer for 30 s, followed by a further 30 s. The fatty acid solutions with different final concentrations of 10–7500 µM were added to the wells. Subsequently, 50 mM MOPS buffer (pH 7.4) and 0.7 µg of purified BChE enzyme were added. The plate was incubated in the absence of light with a plate shaker at 37 °C for 10 min. Measurements were initiated by adding a final concentration of 0.25 mM DTNB (ε412, DTNB = 14.2 mM^−1 cm^−1) and 0.5 mM butyrylthiocholine (BTCh). The mixture of 1% DMSO without the BTCh substrate was used as the reagent blank. The absorbance readings were recorded at a wavelength of 412 nm for a period of 10 min using the Spectramax M2 microplate reader (Molecular Devices, USA). The activity without fatty acids was set as 100% control, while all activities with fatty acids were compared to this control. IC₅₀ values were determined using GraphPad Prism 8.4 software by plotting the percentage of BChE activity against the fatty acid concentration. Each test was performed at least four times and average values were reported as final results.
# human BChE [2] = target: T1, human BChE; assay: Inhibition kinetics, Ellman method with varying BTCh substrate; assay type: biochemical; conditions: for Ki: BTCh as substrate (1.0-0.05 mM), three fatty acid concentrations; for Inhibition type: Lineweaver-Burk analysis, BTCh as substrate
# Description: as §1
# Evaluation of BChE activity was performed according to the Ellman method (George and Abernethy [1983]) with a minor modification in a 96-well microtiter plate assay. The fatty acids oleic acid, linoleic acid, α-LA, and arachidonic acid used in the assay were dissolved in DMSO. The working solutions were then sonicated in a reaction buffer for 30 + 30 s. Based on previous experimental results, three concentrations of oleic acid, linoleic acid, α-LA, and arachidonic acid were chosen: 200–750 µM, 500–2500 µM, 50–250 µM, and 100–300 µM, respectively. This was to clarify the inhibitory mechanisms for the fatty acids. In the presence of these fatty acids, BChE activity was measured at eight progressively lower concentrations (1.0–0.05 mM) of the BTCh substrate. The experimental procedure involved incubation of a solution of the fatty acid with BChE enzyme (0.7 µg), 50 mM MOPS buffer pH 7.4, and 0.25 mM DTNB in the absence of light at 37 °C for 5 min. The reaction was initiated and monitored for 10 min at 412 nm in kinetic mode after addition of the substrate. The identical solution was run with buffer instead of fatty acids as a control and all assays were performed in triplicate. Enzyme activity was expressed in milliunits (mU), where 1 mU corresponds to the hydrolysis of 1 nmol of BTCh per minute at room temperature.
# Enzyme kinetics data was analyzed and graphs were plotted using GraphPad Prism 8.42. The kinetic parameters and the enzyme-substrate relationship were fitted to the Michaelis-Menten model using nonlinear regression.
# AChE = tested on: AChE; design: method as in Akay et al. [2023]; conditions: ref Akay et al. [2023]; cited from earlier work
# T1 sequence (P06276 29-602): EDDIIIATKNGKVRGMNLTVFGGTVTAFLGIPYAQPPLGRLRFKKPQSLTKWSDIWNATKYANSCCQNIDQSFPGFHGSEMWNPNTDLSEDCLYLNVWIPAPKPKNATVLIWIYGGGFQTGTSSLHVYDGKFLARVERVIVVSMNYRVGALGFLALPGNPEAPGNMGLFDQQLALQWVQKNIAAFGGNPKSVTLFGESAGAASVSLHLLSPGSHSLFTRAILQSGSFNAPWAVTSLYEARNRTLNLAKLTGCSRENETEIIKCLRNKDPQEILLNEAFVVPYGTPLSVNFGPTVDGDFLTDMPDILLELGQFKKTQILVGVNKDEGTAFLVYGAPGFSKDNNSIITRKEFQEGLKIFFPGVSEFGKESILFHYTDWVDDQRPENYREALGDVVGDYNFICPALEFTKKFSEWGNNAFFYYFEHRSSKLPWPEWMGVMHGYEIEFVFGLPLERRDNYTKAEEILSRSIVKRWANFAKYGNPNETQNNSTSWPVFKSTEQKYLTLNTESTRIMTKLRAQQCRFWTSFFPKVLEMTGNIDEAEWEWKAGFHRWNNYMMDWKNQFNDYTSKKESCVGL
smiles,measurement,setting,value
"CCCCC/C=C\C/C=C\C/C=C\C/C=C\CCCC(=O)O [Arachidonic acid, arachidonic acid]",IC50,human BChE [1],strongest inhibitory activity
same,IC50,human BChE [1]; read-out: IC50,611 µM
same,Ki,human BChE [2]; read-out: Ki,465 µM
same,Inhibition type,human BChE [2]; listed as AA,uncompetitive type inhibition
same,Inhibition type,human BChE [2]; listed as Arachidonic acid (20:4),Uncompetitive
same,"inhibitory effect on AChE (IC50), rank in words",AChE,strongest inhibitory effect
"CCCCC/C=C\C/C=C\CCCCCCCC(=O)O [Linoleic acid, linoleic acid]",IC50,human BChE [1]; read-out: IC50,5910 µM
same,Ki,human BChE [2]; read-out: Ki,1400 µM
same,Inhibition type,human BChE [2],Noncompetitive inhibition
same,Inhibition type,human BChE [2]; listed as LA,noncompetitive inhibition type
same,Inhibition type,human BChE [2]; listed as Linoleic acid (18:2),Noncompetitive
"CCCCCCCC/C=C\CCCCCCCC(=O)O [Oleic acid, oleic acid]",IC50,human BChE [1]; read-out: IC50,2370 µM
same,Ki,human BChE [2],lowest Ki value
same,Ki,human BChE [2]; read-out: Ki,321 µM
same,Inhibition type,human BChE [2],noncompetitively
same,Inhibition type,human BChE [2]; listed as Oleic acid (18:1),Noncompetitive
CCCCCCCCCCCCCCCCCCCC(=O)O [eicosanoic acid],AChE inhibition in words,AChE,strongly inhibits
"CC/C=C\C/C=C\C/C=C\CCCCCCCC(=O)O [α-Linolenic acid, alpha-linolenic acid]",IC50,human BChE [1]; read-out: IC50,5810 µM
same,Ki,human BChE [2]; read-out: Ki,667 µM
same,Inhibition type,human BChE [2]; listed as α-LA,noncompetitively; also recorded: noncompetitive inhibition type
same,Inhibition type,human BChE [2]; listed as α-Linolenic acid (18:3),Noncompetitive
same,"noncompetitive inhibitory constants (Ki) on AChE, rank in words",AChE,lowest Ki
